# Where “and” joins values, the source holds several entries; their conditions need not be identical. Identical values can stand only once. Counter-ions that a name gives are not always drawn. Like-named read-outs stand apart in the source and are kept apart here.
# How the values were obtained:
# [1] = Solid-state stability (XRPD, UPLC purity); details: for Crystal form Transform: XRPD; for Purity (area%): starting purity 99.82 (hydrochloride), 99.72 (free); for Area (%): UPLC main peak (#Peak 1, RRT 1.00)
# [2] = Pharmacokinetics of hydrochloride crystal form A in Beagle dogs (intragastric); assay type: in vivo; details: dog
# Procedure: Three 31-month-old male Beagle dogs used in this experiment were purchased from Beijing Marshall Bioresources Co., Ltd., with the animal qualification certificate No. 110318201100056783.
# In this experiment, three male Beagle dogs were randomly selected for administration. All the animals were fasted for at least 12 h before administration and were fed again 4 h after administration. […] Table 28 Administration methods for animals
# The blood samples from the animals were collected through the jugular vein, with a blood sample volume of 0.5 mL/time. All collected whole blood samples were placed in centrifuge tubes containing EDTA-K2, and the centrifuge tubes were turned upside down to allow the anticoagulant and blood to be fully mixed. All the blood samples were placed on wet ice before centrifugation and centrifuged at 1500 g for 10 min to separate plasma. The plasma samples were transferred to sample tubes and stored at -40°C to […] until analysis.
# The drug concentration in the plasma of each Beagle dog was detected by an LC-MS/MS method. […]
# [3] = assay type: physicochemical; details: 24 h; for S: solubility / pH: room temperature; for S: solubility: calculated as free form; for FC: crystal transfer: XRPD of solid; for pH: pH of filtrate
# [4] = DVS
# Procedure: DVS isotherms were collected on an SMS (Surface Measurement Systems) DVS Intrinsic. Relative humidity at 25°C was calibrated using the deliquescence points of LiCl, Mg(NO3)2, and KCl. Table 9 DVS testing parameters
# [5] = Mechanical stability (grinding, tableting at 350 MPa, XRPD); assay type: physicochemical
# [6] = for Carr index: (tapped density - bulk density) / tapped density; for Average angle of repose (°) / Average bulk density / Average tapped density: mean of three tests
# Procedure: A method for testing the density and the tapped density included: (1) a certain mass of to-be-assessed sample was placed into a 5 mL measuring cylinder, and the volume at this moment was recorded. The bulk density was calculated by dividing the mass of the sample by the volume at this moment. (2) The measuring cylinder was slightly tapped 200 times, the final volume was recorded, and the tapped density was calculated by dividing the mass of the sample by the final volume. (3) Three parallel tests were conducted. A method for testing the angle of repose included: (1) a funnel was fixed vertically to a bottom surface, and the material was slowly placed into the funnel. (2) A well-proportioned cone of the material was formed on the bottom surface. The height and bottom surface diameter of the cone were measured. (3) Three parallel tests were conducted.
# Angle of repose α = […], where h is the cone height, and D is the cone diameter.
# [7] = assay type: physicochemical; details: 37°C; for S: solubility: calculated as free form; for pH: pH of filtrate
# [8] = listed as hydrochloride crystal form A
# [9] = single values of three parallel tests
smiles,measurement,setting,value
CC[S@@](=N)(=O)C[C@H]1CC[C@H](N(C)c2ncnc3[nH]ccc23)CC1 [Hydrochloride crystal form A],Crystal form Transform,"[1]; 25°C/60% RH/4 weeks, open",No
same,Purity (area%),"[1]; 25°C/60% RH/4 weeks, open",99.88 area%
same,Crystal form Transform,"[1]; 40°C/75% RH/4 weeks, open",No
same,Purity (area%),"[1]; 40°C/75% RH/4 weeks, open",99.88 area%
same,Crystal form Transform,"[1]; 80°C/1 d, closed",No
same,Area (%),[1]; 25°C/60% RH/4 weeks,99.88%
same,Area (%),[1]; 40°C/75% RH/4 weeks,99.88%
same,Area (%),[1]; 80°C/1 d,99.87%
same,clinical observation,[2]; in vivo,no obvious abnormalities were found
same,k el,"[2]; plasma, po, 6 mg/kg",5.39e-05 s⁻¹
same,S: solubility,[3]; Buffer (pH=2.0),>9500 µg/mL
same,S: solubility,[3]; Buffer (pH=7.4),2500 µg/mL
same,FC: crystal transfer,[3]; Buffer (pH=7.4),Yes
same,FC: crystal transfer,"[3]; Buffer (pH=7.4), listed as hydrochloride crystal form A",transformed into the free crystal form A
same,pH,[3]; Buffer (pH=2.0),3.5
same,pH,[3]; Buffer (pH=4.5),4.4
same,pH,[3]; Buffer (pH=7.4),6.2
same,Hygroscopic weight gain (wt%) at 25°C/80% RH,[4],0.47 wt%
same,Hygroscopic weight gain (wt%) at 25°C/80% RH,[4]; [8],0.47 wt%
same,Results of mechanical stability After grinding,[5]; manual grinding,The crystal form remains unchanged
same,Results of mechanical stability After tableting,"[5]; tablet press, 350 MPa","The crystal form remains unchanged, but the crystallinity is slightly reduced"
same,Carr index,[6],41%
same,Carr index,[6]; [8],41%
same,Average angle of repose (°),[6],33.9 °
same,Average bulk density,[6],0.14 g/mL
same,Average tapped density,[6],0.24 g/mL
same,Average angle of repose (°),[6]; [8],33.9 °
same,Average bulk density,[6]; [8],0.14 g/mL
same,Average tapped density,[6]; [8],0.24 g/mL
same,Angle of repose (°),[6]; [9],33.7 ° and 37.2 ° and 30.8 °
same,Bulk density,[6]; [9],0.14 g/mL and 0.13 g/mL
same,Tapped density,"[6]; tapped 200 times, single values of three parallel tests",0.23 g/mL and 0.25 g/mL
same,S: solubility,"[7]; FaSSIF, 1 h, 60 min",>9500 µg/mL
same,S: solubility,"[7]; FaSSIF, 2 h, 120 min",>9700 µg/mL
same,S: solubility,"[7]; FaSSIF, 4 h, 240 min",>9800 µg/mL
same,S: solubility,"[7]; FaSSIF, 24 h, 1440 min",>9600 µg/mL
same,S: solubility,"[7]; FeSSIF, 1 h, 60 min",>10400 µg/mL
same,S: solubility,"[7]; FeSSIF, 2 h, 120 min",>10200 µg/mL
same,S: solubility,"[7]; FeSSIF, 4 h, 240 min",>10200 µg/mL
same,S: solubility,"[7]; FeSSIF, 24 h, 1440 min",>10000 µg/mL
same,S: solubility,"[7]; H2O, 1 h, 60 min",>9300 µg/mL
same,S: solubility,"[7]; H2O, 4 h, 240 min",>9500 µg/mL
same,S: solubility,"[7]; SGF, 1 h, 60 min",>9800 µg/mL
same,S: solubility,"[7]; SGF, 2 h, 120 min",>9900 µg/mL
same,S: solubility,"[7]; SGF, 4 h, 240 min",>9800 µg/mL
same,S: solubility,"[7]; SGF, 24 h, 1440 min",>10300 µg/mL
same,pH,"[7]; FaSSIF, 1 h",5.0
same,pH,"[7]; FaSSIF, 2 h",5.1
same,pH,"[7]; FaSSIF, 4 h",5.1
same,pH,"[7]; FaSSIF, 24 h",5.0
same,pH,"[7]; FeSSIF, 1 h",4.9
same,pH,"[7]; FeSSIF, 2 h",4.9
same,pH,"[7]; FeSSIF, 4 h",4.9
same,pH,"[7]; FeSSIF, 24 h",4.8
same,pH,"[7]; H2O, 1 h",4.0
same,pH,"[7]; H2O, 2 h",4.0
same,pH,"[7]; H2O, 4 h",4.0
same,pH,"[7]; H2O, 24 h",4.0
same,pH,"[7]; SGF, 1 h",2.9
same,pH,"[7]; SGF, 2 h",3.0
same,pH,"[7]; SGF, 4 h",3.0
same,pH,"[7]; SGF, 24 h",2.9

# — patent EP4660196A1, “CRYSTAL FORM OF COMPOUND, PREPARATION METHOD THEREFOR AND USE THEREOF” (Felicamed Biotechnology Co., Ltd., priority 2023, dated 2024)
